Measured values published in paper PMC8397418, “Novel Bis-Thiazole Derivatives: Synthesis and Potential Cytotoxic Activity Through Apoptosis With Molecular Docking Approaches” (Frontiers in Chemistry, 2021).
“Also recorded” adds a separate entry of the source.

What was measured:
Assay type in all cases: cell-based, human
C-myc in KF-28 cells = experiment: Western blot of C-myc expression; conditions: two days, vs DMSO
From the text: Pim-1 has been classified as a weak oncogene. However, a very strong synergism with regard to tumorigenicity occurs between Pim-1 and C-myc. This synergism is observed with bitransgenic mice overexpressing C-myc and Pim-1 in lymphoid tissue ([Möröy et al., 1991]). To further validate the simulation and docking data which introduced Pim-1 kinase as a potential target molecule for some of the tested compounds, we decided to check the effect of treatment with the selected compounds on the C-myc protein expression as a downstream target molecule known to be phosphorylated and stabilized by Pim-1 as a kinase ([Zhang et al., 2008]). […] Taking into consideration the fact that Pim-1 phosphorylates C-myc and controls its stability ([Zhang et al., 2008]) may conclude that the reduction of C-myc expression under the indicated compounds is due to the inhibition of Pim-1 activity (Figure 3). Therefore, the speculated inhibition of Pim-1 is supported by the above-mentioned qPCR data (Figure 3) and further supported by C-myc downregulation. Our results agree with the reported one which states that some thiazole derivatives are potent inhibitors against protein kinases including Pim-1 kinase ([Mohareb et al., 2019]).
Cell lysates were prepared by lysing cells in RIPA buffer (10 mM Tris (pH 7.4), 150 mM NaCl, 1% Triton X-100, 1% Na deoxycholate), supplemented with protease inhibitor cocktail (Sigma). Protein concentration of whole cell lysates was determined by the […] using the BSA kit (Pierce), and then equal protein amounts were heated to 95 °C for 5 min with sodium dodecyl sulfate (SDS) sample buffer (25 ml glycerol, 31.2 ml Tris buffer, 7.5 ml SDS, a dash of bromophenol blue/100 ml) and run on 15% SDS polyacrylamide gel electrophoresis (SDS-PAGE). Protein samples were then blotted onto PVDF membranes (Immobilon P, Watford, United Kingdom). The membranes were incubated in blocking solution (5% non-fat milk in PBS) for 1 h and then in primary antibody (anti-human C-myc pAb (Abcam; at dilution of 2:1,000) or GAPDH mAb (Santa Cruz; at dilution of 20:1,000)) overnight. After 3 × 10 min washes in TBS (0.1% Tween-20 in PBS), the membrane was incubated for 1 h at room temperature with horseradish-peroxidase–linked (HRP) secondary anti-rabbit or anti-mouse Ab (1:1,000 dilution in PBS). Signals on the membrane were developed using ECL reagent (Amersham, CA, United States) and then were imaged with the Chemidoc system (Bio-Rad, United States).

KF-28 cells [1] = experiment: DNA content and cell cycle analysis (PI, flow cytometry); conditions: 200 µM, 48 h; for Cell cycle phase G1 population: DMSO control 72%
Description: Studying the cell cycle phases by measuring DNA content is a crucial test that helps in evaluating the impact of a given drug(s) on dividing cells and may reflect the mechanism through which this drug(s) affects those cells. […] Compounds 5a, 5b, 5c, 5f, 5g, and 9 were added to similar numbers of cells at 200 µM for 48 h, and then, the different cell cycle phases were assessed by flow cytometric analysis.
The cells were seeded into six-well culture plates (3–5 × 10^5 cells/well) and incubated overnight at 37°C, under 5% CO2. The cells were then treated with indicated compounds for 48 h. Next, media supernatants and the cells were collected and washed with ice-cold PBS. Next, the cells were stained with PI (10 mg/ml) for 30 min and analyzed for DNA contents using flow cytometry analysis using an FL2 (λex/em 535/617 nm) signal detector (ACEA Novocyte™ flow cytometer, ACEA Biosciences, Inc., San Diego, CA, United States). For each sample, 12,000 events are acquired. Cell cycle distribution is calculated using a CytoFLex machine and analyzed by CytExpert software. Flow cytometric methodologies (annexin V/PI staining with cell cycle analyses) are carried out as previously described ([Nafie et al., 2020a]; [Nafie et al., 2020b]; [Gad et al., 2020]).

KF-28 cells [2] = experiment: Quantitative RT-PCR of apoptosis-related genes; conditions: 48 h
Description: Next, we investigated the pathway through which apoptosis is induced by compounds 5a, 5b, and 5f in KF-28 cells. For that purpose, after treating cells with each compound, RNA was extracted, cDNA was synthesized, and RT-PCR was performed to quantify the mRNA expression of pro-apoptotic genes (p53, bax, puma), caspases 3, 8 9, anti-apoptotic gene (Bcl-2), and Pim-1 kinase genes in KF-28 cells.
The cells were grown in 10 cm^2 culture dishes to a monolayer with a confluence of 90% in triplicates. After different treatments, the cells were washed twice with PBS and then pelleted by centrifugation for 5 min at 1800 rpm at 4°C. The cells were lysed by Trizol reagent (Invitrogen), and then total RNA was purified with the phenol/chloroform extraction method. Concentration and purity of RNA samples were measured using NanoDrop. The RNA purity was assessed as OD260/OD230 (≥1.5) using NanoDrop. gDNA was eliminated by DNase. The RNA from three biological samples was then pooled for mRNA analysis, cDNA was synthesized using the iScript kit (Bio-Rad, United States) according to the manufacturer’s recommendation, and RT-PCRs consisted of 8.34 µL Fluocycle® II SYBR® (Euroclone, Milan, Italy), 0.5 µL of both 10 µM forward and reverse primers, 1 µL cDNA, and 6.34 µL of H2O. All reactions were performed for 35 cycles using the following temperature profile: 95°C for 5 min (initial denaturation), 95°C for […] (denaturation), 55°C for […] (annealing), and 72°C for […] (extension) ([Nafie et al., 2020a]; [Sarhan et al., 2020]). Then, the Ct values were collected, with the folds of changes between all the samples.

Structure (SMILES) | C-myc protein expression (Western blot) (C-myc in KF-28 cells) | Cell cycle phase S population (KF-28 cells [1]) [%] | Cell cycle phase G1 population (KF-28 cells [1]) [%] | Bcl-2 expression, maximum decrease (KF-28 cells [2]) | Pim-1 kinase expression, maximum decrease (KF-28 cells [2]) | bax mRNA level, maximum increase (KF-28 cells [2]) [fold] | caspase 3 mRNA level, maximum increase (KF-28 cells [2]) | caspase 9 mRNA level, maximum increase (KF-28 cells [2]) [fold] | p53 mRNA relative expression (KF-28 cells [2]) | puma mRNA level, maximum increase (KF-28 cells [2]) | caspase 8 mRNA level, maximum increase (KF-28 cells [2]) [fold]
Cc1[nH]c(=NN=C2CCC(=NN=c3[nH]c(C)c(N=Nc4ccccc4)s3)CC2)sc1N=Nc1ccccc1 [5a, 1,4-Bis((5-phenylazo-4-methylthiazol-2-ylidene)hydrazono)cyclohexane] | observable downregulation | 11.4 | 75.9 | ≈ 0.5 fold | ≈ 0.31 fold | ~5.2 | ≈ 6.2 fold | ~5.6 | ≈ 4.07 fold | ≈ 5.08 fold | –
Cc1[nH]c(=NN=C2CCC(=NN=c3[nH]c(C)c(N=Nc4ccccc4Cl)s3)CC2)sc1N=Nc1ccccc1Cl [5f, 1,4-Bis((5-(2-chlorophenylazo)-4-methylthiazol-2-ylidene)hydrazono)cyclohexane] | observable downregulation; also recorded: Appreciated downregulation | – | 76.9 | ≈ 0.76 fold | ≈ 0.86 fold | ~2.33 | ≈ 6.9 fold | ~6.0 | ≈ 3.81 fold | ≈ 3.14 fold | ~5.5
Cc1ccc(N=Nc2sc(=NN=C3CCC(=NN=c4[nH]c(C)c(N=Nc5ccc(C)cc5)s4)CC3)[nH]c2C)cc1 [5b, 1,4-Bis((5-(4-tolylazo)-4-methylthiazol-2-ylidene)hydrazono)cyclohexane] | observable downregulation; also recorded: Appreciated downregulation | 4.5 | 85.6 | – | – | ~3.33 | – | – | ≈ 3.41 fold | ≈ 4.14 fold | –
